This is an account of results in patent US20150190416A1, “FILAGGRIN PRODUCTION PROMOTER, THERAPEUTIC AGENT FOR DISEASES ASSOCIATED WITH REDUCTION IN PRODUCTION OF FILAGGRIN, AND METHOD FOR SCREENING FOR SAID THERAPEUTIC AGENT” (KYOTO UNIVERSITY, priority 2012, published 2015).

The subject of assay [1] is atopic dermatitis mouse model (NC/Nga). Nature of the assay: Dermatitis-alleviating effect in atopic dermatitis mouse model (NC/Nga) (Example 14). The format is in vivo. How it is done: Experiments were conducted with raising 6- to 10-week-old atopic dermatitis-developing NC/Nga mice with mites (Japan SLC, Inc.) under a normal environment. Namely, the dermatitis-alleviating effect was measured by the oral administration of 500 μl of a solution obtained by dissolving Compound 1 at 0.75 mg/ml in a methyl cellulose solution (0.5 W/V % Methyl Cellulose 400 Solution, Wako, 133-14255) to an NC/Nga mouse developing dermatitis majorly in the ear auricles and the head (0.375 mg of Compound 1 was administered to the mouse per time) every other day. As a control, 500 μl of the methylcellulose solution were administered orally every other day.
With regard to clinical manifestations, the evaluation was conducted on a four-point scale of none (0), weak (1), moderate (2), and severe (3) by visual inspection for four items of erythema, edema, erosion, and squama. The evaluated values of the four items were summed to give a score before the start of oral administration (0 wk), 4 weeks after the oral administration (4 wk), and 8 weeks after the oral administration (8 wk), and then the clinical manifestations of a mouse model were measured as a clinical score. Further, the oral administration was ended 8 weeks after the start of oral administration, and thereafter, the mouse was continued to be kept under the same conditions. 4 weeks after the end of oral administration (12 wk after the start of oral administration), clinical manifestations were scored in the same manner.
A TEWL was measured 8 and 12 weeks after the start of oral administration in the above-mentioned section (i) using a tape type closed chamber system water transpiration measuring instrument VAPO SCAN AS-VT100RS (ASAHI BIOMED) according to the manufacturer's manual.
The appearances of the developing NC/Nga mice 12 weeks after the start of oral administration (the oral administration was ended 8 weeks after the start of oral administration) in (i) described above were shown in FIGS. 16(a) and 16(b).

For assay [2], the system named is FLG monomer. Nature of the assay: FLG monomer-producing effect in atopic dermatitis mouse model (NC/Nga), Western blotting (Example 15). To be noted: oral 0.75 mg every other day, 2 weeks, ear epidermis. The format is in vivo. How it is done:
Experiments were conducted with raising 6- to 10-week-old atopic dermatitis-developing NC/Nga mice with mites (Japan SLC, Inc.) under a normal environment. Namely, 500 μl of a solution obtained by dissolving Compound 1 at 1.5 mg/ml in a methyl cellulose solution (0.5 W/V % Methyl Cellulose 400 Solution, Wako, 133-14255) were orally administered to an NC/Nga mouse developing dermatitis majorly in the ear auricles and the head (0.75 mg of Compound 1 was administered to the mouse per time) every other day. As a control, 500 μl of the methyl cellulose solution was orally administered every other day. The experiments were conducted by using five mice in each of a Compound 1-administered group and a control group.
2 weeks after the beginning of administration, ears of each mouse were cut under anesthesia, the skin of the cut ear was peeled off by pinching cartilage, and the skin on the dermal side was soaked in PBS containing 20 mM EDTA at 37° C. for 30 minutes. Next, the epidermis of the ear was peeled off and […] of Lysis buffer (0.1 M Tris-HCl (pH 9.0), 6 M Urea, 1% 2-mercapto-ethanol, 1% SDS, 1 mM EDTA, and Protease inhibitor cocktail) were added to the epidermis. The epidermis was homogenized with an electrically powered pestle, and the homogenized cells were centrifuged at 15,000 rpm at 4° C. for 20 minutes. […]

For assay [3], the system named is FLG protein. As to the kind of experiment: FLG protein in cultured human normal skin, immunohistostaining (Example 12). The format is cell-based. The following applies: 1 μM, 4 days. The source says: In this example, the expression-increasing effect of Compound 1 (N-quinolylbenzamide derivative) on FLG monomer was examined by using human normal skin. The expression of the FLG monomer was confirmed by an immunohistostaining method using an anti-human FLG antibody. The medium used was a medium for proliferating normal human epidermal keratinocytes (HuMedia-KG2, KURABO INDUSTRIES LTD.). It should be noted that, in this example, surplus portions of normal skin derived from extirpation of portions of a skin disease were used under the agreement by the donor through Ethics Committee of Kyoto University.
1) Human normal skin (with a size of 5×5×5 mm) was put on a transwell of a 24-well transwell plate, 500 μl of the medium, to which Compound 1 (1 μM) or a control (vehicle (DMSO)) was added, were added to the lower part, and the skin was cultured. After culture for 2 days, the medium was exchanged for the same medium.
2) After 4 days, the cultured skin was collected, and was soaked in 10% formalin overnight, and thereafter, a paraffin section having a thickness of […] was prepared according to a conventional method. […]

Consider `CCc1ccc(OCc2ccccc2C(=O)Nc2ccc3nc(C)cc(N)c3c2)cc1.Cl` [Compound 1, N-(4-Amino-2-methyl-6-quinolyl)-2-[(4-ethylphenoxy)methyl]benzamide hydrochloride], for which, in assay [1] (12 weeks after start of oral administration, 4 weeks after the end), the “appearance of developing NC/Nga mouse” value was “almost good clinical manifestations were kept”. For the same compound, the “amount of water transpiration (TEWL)” value in assay [1] (NC/Nga mouse, 4 weeks after the end of oral administration (12 weeks after the start)) was “suppressed as compared to the control”. In addition, the “clinical manifestations of dermatitis (clinical score)” value is given as “symptoms of dermatitis were suppressed as compared to the control” in assay [1] (NC/Nga mouse, 4 weeks after the end of oral administration (12 wk after the start)) and “symptoms of dermatitis were alleviated” in assay [1] (NC/Nga mouse, oral 0.375 mg every other day, 8 weeks after the start of oral administration). The “transepidermal water loss (TEWL)” value in assay [1] (developing NC/Nga mouse, oral 0.375 mg every other day, after 8 weeks, control about 60) is “about 10 g/h·m^2”. The “production of FLG monomer (relative to GAPDH)” value in assay [2] was “clearly promoted the production of FLG monomer”. For the same compound, the “development of the stratum corneum” value in assay [3] was “greater than that of the control”. Besides, in assay [3] (immunohistostaining), the “FLG protein within the skin” value was “markedly increased”.
